Test results published in PubChem BioAssay AID248 (DTP/NCI, 2004).
Where “and” joins values, the source holds several entries; their conditions need not be identical. Equal values may be shown once. Inconclusive results and toxic doses are left out. Rule as the data show it: active = T/C of 150% or more; inactive = T/C below 125%.

Test system: L1210 leukemia ip in BDF1 mice, survival T/C
Assay: NCI In Vivo Anticancer Drug Screen. Data for tumor model L1210 Leukemia (intraperitoneal) in B6D2F1 (BDF1) mice
Settings: endpoint: mean survival time, higher = longer survival
How it was run: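 Read-out is survival time, reported as the treated-group measurement over the vehicle-control measurement.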

[1] = dose: 100.0 mg/kg/injection, schedule: Q01DX009 (ip), vehicle: saline with Tween-80
[2] = dose: 100.0 mg/kg/injection, schedule: Q04DX003 (ip), vehicle: saline with Tween-80
[3] = dose: 200.0 mg/kg/injection, schedule: Q01DX009 (ip), vehicle: saline with Tween-80
[4] = dose: 200.0 mg/kg/injection, schedule: Q04DX003 (ip), vehicle: saline with Tween-80
[5] = dose: 400.0 mg/kg/injection, schedule: Q01DX009 (ip), vehicle: saline with Tween-80
[6] = dose: 400.0 mg/kg/injection, schedule: Q04DX003 (ip), vehicle: saline with Tween-80
[7] = dose: 100.0 mg/kg/injection, schedule: Q01DX009 (ip), vehicle: saline
[8] = dose: 100.0 mg/kg/injection, schedule: Q04DX003 (ip), vehicle: Klucel (hydroxypropylcellulose) (HPC)
[9] = dose: 100.0 mg/kg/injection, schedule: Q04DX003 (ip), vehicle: saline
[10] = dose: 200.0 mg/kg/injection, schedule: Q01DX009 (ip), vehicle: saline
[11] = dose: 200.0 mg/kg/injection, schedule: Q04DX003 (ip), vehicle: Klucel (hydroxypropylcellulose) (HPC)
[12] = dose: 200.0 mg/kg/injection, schedule: Q04DX003 (ip), vehicle: saline
[13] = dose: 400.0 mg/kg/injection, schedule: Q01DX009 (ip), vehicle: saline
[14] = dose: 400.0 mg/kg/injection, schedule: Q04DX003 (ip), vehicle: saline
[15] = dose: 50.0 mg/kg/injection, schedule: Q01DX009 (ip), vehicle: saline with Tween-80
[16] = dose: 100.0 mg/kg/injection, schedule: Q01DX009 (ip), vehicle: Klucel (hydroxypropylcellulose) (HPC)
[17] = dose: 200.0 mg/kg/injection, schedule: Q01DX009 (ip), vehicle: Klucel (hydroxypropylcellulose) (HPC)
[18] = dose: 25.0 mg/kg/injection, schedule: Q01DX009 (ip), vehicle: saline
[19] = dose: 50.0 mg/kg/injection, schedule: Q01DX009 (ip), vehicle: saline
[20] = dose: 50.0 mg/kg/injection, schedule: Q01DX001 (ip), vehicle: saline
[21] = dose: 100.0 mg/kg/injection, schedule: Q01DX001 (ip), vehicle: saline
[22] = dose: 200.0 mg/kg/injection, schedule: Q01DX001 (ip), vehicle: saline
[23] = dose: 400.0 mg/kg/injection, schedule: Q01DX001 (ip), vehicle: saline

Measured: T/C

OCC1OCCO1
inactive: [1] 96 % of control | [2] 110 % of control | [3] 93 % of control | [4] 102 % of control | [5] 96 % of control | [6] 100 % of control

CCOC(=O)CC(N)C(=O)OCC (configuration not stated)
inactive: [7] 98 % of control | [8] 99 % of control | [9] 88 % of control | [10] 95 % of control | [11] 100 % of control | [12] 93 % of control | [13] 97 % of control | dose: 400.0 mg/kg/injection, schedule: Q04DX003 (ip), vehicle: Klucel (hydroxypropylcellulose) (HPC) 87 % of control | [14] 102 % of control

CCOC(=O)C(O)(CC)CCC(C)C (configuration not stated)
inactive: [15] 101 % of control | [1] 101 % of control | [3] 111 % of control

CCOC(=O)c1ccc(NC(=O)SCCSC(=O)Nc2ccc(C(=O)OCC)cc2)cc1
inactive: [16] 90 % of control | [17] 91 % of control | dose: 400.0 mg/kg/injection, schedule: Q01DX009 (ip), vehicle: Klucel (hydroxypropylcellulose) (HPC) 91 % of control

CC(=O)N1c2ccccc2Sc2ccc(C(=O)CCl)cc21
inactive: dose: 50.0 mg/kg/injection, schedule: Q01DX001 (ip), vehicle: carboxymethylcellulose (CMC) 96 % of control | dose: 100.0 mg/kg/injection, schedule: Q01DX001 (ip), vehicle: carboxymethylcellulose (CMC) 98 % of control | dose: 200.0 mg/kg/injection, schedule: Q01DX001 (ip), vehicle: carboxymethylcellulose (CMC) 96 % of control | dose: 400.0 mg/kg/injection, schedule: Q01DX001 (ip), vehicle: carboxymethylcellulose (CMC) 98 % of control

OCC1OC(n2ncc3ccccc32)C(O)C1O (configuration not stated)
inactive: dose: 50.0 mg/kg/injection, schedule: Q01DX005 (ip), vehicle: other 109 % of control | dose: 100.0 mg/kg/injection, schedule: Q01DX005 (ip), vehicle: other 105 % of control | dose: 200.0 mg/kg/injection, schedule: Q01DX005 (ip), vehicle: other 98 % of control

O=C(/C=C(\Cl)C(=O)NO)NO
inactive: dose: 100.0 mg/kg/injection, schedule: Q01DX009 (ip), vehicle: acetone 102 % of control

CSc1ncc(C#N)c(N)n1
inactive: [15] 98 % of control | [1] 93 % of control | [2] 97 % of control | [3] 104 % of control | [4] 94 % of control

CNC(=N)c1ccc(NC(=N)c2ccc(NC(=N)c3ccc(NC(=O)Nc4ccc(C(=N)Nc5ccc(C(=N)Nc6ccc(C(=N)NC)cc6)cc5)cc4)cc3)cc2)cc1
active: dose: 16.0 mg/kg/injection, schedule: Q01DX015 (ip), vehicle: water 157 % of control | dose: 31.0 mg/kg/injection, schedule: Q01DX015 (ip), vehicle: water 214 % of control
inactive: dose: 6.25 mg/kg/injection, schedule: Q01DX001 (ip), vehicle: water 112 % of control | dose: 12.5 mg/kg/injection, schedule: Q01DX001 (ip), vehicle: water 108 % of control | dose: 25.0 mg/kg/injection, schedule: Q01DX001 (ip), vehicle: water 112 % of control

CCN(CC)c1ccc2c(c1)Cc1ccccc1-2
inactive: [2] 100 % of control | [4] 98 % of control | [6] 100 % of control

CC(C)N1C(=O)N(C(C)C)C2(CCN(CC3COc4ccccc4O3)CC2)C1=O (configuration not stated)
inactive: dose: 100.0 mg/kg/injection, schedule: Q01DX001 (ip), vehicle: Klucel (hydroxypropylcellulose) (HPC) 100 % of control | dose: 200.0 mg/kg/injection, schedule: Q01DX001 (ip), vehicle: Klucel (hydroxypropylcellulose) (HPC) 88 % of control | dose: 400.0 mg/kg/injection, schedule: Q01DX001 (ip), vehicle: Klucel (hydroxypropylcellulose) (HPC) 94 % of control

CCC(=O)c1ccc(OCC(O)CN2CCN(c3ccccc3OC)CC2)cc1 (configuration not stated)
inactive: [2] 96 % of control | [4] 96 % of control | [6] 103 % of control

CC(=S)Nc1ccc2ccccc2c1
inactive: [1] 94 % of control | [2] 101 % of control | [3] 94 % of control | [4] 104 % of control | [5] 109 % of control | [6] 101 % of control

Cc1cc(=O)cc(C)n1C
inactive: [1] 96 % of control | [3] 100 % of control | [5] 92 % of control

CCN(CC)CCSC(=O)C(O)(c1ccccc1)C1CCCC1 (configuration not stated)
inactive: [18] 103 % of control | [19] 97 % of control and 108 % of control | dose: 75.0 mg/kg/injection, schedule: Q01DX001 (ip), vehicle: saline 96 % of control | [7] 100 % of control and 88 % of control | [9] 102 % of control | dose: 150.0 mg/kg/injection, schedule: Q01DX001 (ip), vehicle: saline 92 % of control | [12] 100 % of control

C/C=C/c1ccc(OCC)c(OC)c1
inactive: [9] 97 % of control | [12] 98 % of control

O=C(Oc1ccc(O)cc1)c1ccccc1
inactive: dose: 25.6 mg/kg/injection, schedule: Q04DX002 (ip), vehicle: saline 88 % of control | dose: 64.0 mg/kg/injection, schedule: Q04DX002 (ip), vehicle: saline 95 % of control | dose: 160.0 mg/kg/injection, schedule: Q04DX002 (ip), vehicle: saline 92 % of control | dose: 400.0 mg/kg/injection, schedule: Q04DX002 (ip), vehicle: saline 92 % of control

COc1cc(C(=O)OCCCN2CCOCC2)cc(OC)c1OC
inactive: [18] 107 % of control | dose: 25.0 mg/kg/injection, schedule: Q04DX003 (ip), vehicle: saline 106 % of control | [19] 92 % of control | dose: 50.0 mg/kg/injection, schedule: Q04DX003 (ip), vehicle: saline 101 % of control | [7] 92 % of control | [9] 98 % of control | [10] 105 % of control | [12] 98 % of control | [13] 100 % of control | [14] 95 % of control

C[n+]1ccc(/C=C/c2csc3ccccc23)cc1
inactive: dose: 5.0 mg/kg/injection, schedule: Q01DX001 (ip), vehicle: carboxymethylcellulose (CMC) 107 % of control | dose: 10.0 mg/kg/injection, schedule: Q01DX001 (ip), vehicle: carboxymethylcellulose (CMC) 96 % of control | dose: 20.0 mg/kg/injection, schedule: Q01DX001 (ip), vehicle: carboxymethylcellulose (CMC) 91 % of control | dose: 40.0 mg/kg/injection, schedule: Q01DX001 (ip), vehicle: carboxymethylcellulose (CMC) 98 % of control

COC(OC)c1cc(=O)[nH]c(N)n1
inactive: [20] 103 % of control | dose: 50.0 mg/kg/injection, schedule: Q01DX009 (ip), vehicle: Klucel (hydroxypropylcellulose) (HPC) 109 % of control | dose: 50.0 mg/kg/injection, schedule: Q04DX003 (ip), vehicle: Klucel (hydroxypropylcellulose) (HPC) 97 % of control | [21] 101 % of control | [16] 100 % of control | [8] 93 % of control | [22] 108 % of control | [17] 104 % of control | [11] 96 % of control

Cc1cc[n+](CCCCCCCCCCO)cc1C
inactive: dose: 87.5 mg/kg/injection, schedule: Q01DX001 (ip), vehicle: saline 97 % of control

C=CS(=O)(=O)c1ccc(C)cc1
inactive: dose: 25.0 mg/kg/injection, schedule: Q04DX002 (ip), vehicle: Klucel (hydroxypropylcellulose) (HPC) 104 % of control | dose: 50.0 mg/kg/injection, schedule: Q04DX002 (ip), vehicle: Klucel (hydroxypropylcellulose) (HPC) 110 % of control | dose: 100.0 mg/kg/injection, schedule: Q04DX002 (ip), vehicle: Klucel (hydroxypropylcellulose) (HPC) 96 % of control and 104 % of control

CN(C)S(=O)(=O)c1ccc(NC(=O)OC2CCCCCCC2)cc1
inactive: [21] 96 % of control | [22] 94 % of control | [23] 89 % of control

CC1CCOC1=O (configuration not stated)
inactive: [20] 96 % of control | [21] 107 % of control | [22] 105 % of control | [23] 96 % of control

Nc1ccn(CCCCc2ccccc2)c(=O)n1
inactive: dose: 100.0 mg/kg/injection, schedule: Q01DX001 (ip), vehicle: gum acacia 93 % of control | dose: 200.0 mg/kg/injection, schedule: Q01DX001 (ip), vehicle: gum acacia 95 % of control | dose: 400.0 mg/kg/injection, schedule: Q01DX001 (ip), vehicle: gum acacia 91 % of control
